Legend:
HDAC 1 [1] = target: T1, HDAC 1 (Homo sapiens, UniProt Q13547); test: HDAC 1 fluorogenic peptide substrate assay without preincubation; type: biochemical; conditions: no preincubation; read-out: HDAC 1 inhibitory activity (IC50) No preincubation
Protocol: (§1) HDAC inhibitory activity of the compound of Example 1 was measured by two types of assays in which HDAC 1 and 6 were used as a target molecule. The first assay was carried out without preincubation after addition of the enzyme. The test compound was suspended in and titrated in DMSO. It was then spotted into a 384-well test plate. The enzyme, HDAC 1 or 6, was diluted in assay buffer containing 25 mM Tris-HCl (pH 8.0), 137 mM NaCl, 2.7 mM KCl, and 0.01% Tween-20 and added to the pre-spotted compound. The peptide substrate containing a fluorophore/quencher pair was diluted in the same assay buffer and added to the compound/enzyme mix initiating the reaction. The reaction incubated at room temperature for about 45 minutes. A concentrated developer solution was diluted in the assay buffer, and added to the reaction. The reaction was incubated at room temperature for about 15 minutes and relative fluorescence was read on an instrument reader.

HDAC 1 [2] = target: T1, HDAC 1; test: HDAC 1 fluorogenic peptide substrate assay with 3-hour enzyme/compound preincubation; type: biochemical; conditions: 3-hour preincubation of enzyme and compound; read-out: HDAC 1 inhibitory activity (IC50) 3-hour preincubation
Protocol: (§2) The second assay is similar to the first assay described above, except that preincubation is carried out for about 3 hours after the enzyme is introduced. The test compound was suspended in, and titrated in DMSO. It was then spotted into a 384-well test plate. The enzyme, HDAC 1 or 6, was diluted in the same assay buffer as used in the previous assay and added to the pre-spotted compound. The enzyme/compound mix was incubated at room temperature for about 3 hours. The peptide substrate containing a fluorophore/quencher pair was diluted in the assay buffer and added to the compound/enzyme mix initiating the reaction. The reaction incubated at room temperature for 45 minutes. A concentrated developer solution was diluted in the assay buffer, and added to the reaction. The reaction was incubated at room temperature for about 15 minutes and relative fluorescence was read on an instrument reader.

HDAC 6 [3] = target: T2, HDAC 6 (Homo sapiens, UniProt Q9UBN7); test: HDAC 6 fluorogenic peptide substrate assay with 3-hour enzyme/compound preincubation; type: biochemical; conditions: 3-hour preincubation of enzyme and compound; read-out: HDAC 6 inhibitory activity (IC50) 3-hour preincubation
T2 sequence (Q9UBN7 1-1215): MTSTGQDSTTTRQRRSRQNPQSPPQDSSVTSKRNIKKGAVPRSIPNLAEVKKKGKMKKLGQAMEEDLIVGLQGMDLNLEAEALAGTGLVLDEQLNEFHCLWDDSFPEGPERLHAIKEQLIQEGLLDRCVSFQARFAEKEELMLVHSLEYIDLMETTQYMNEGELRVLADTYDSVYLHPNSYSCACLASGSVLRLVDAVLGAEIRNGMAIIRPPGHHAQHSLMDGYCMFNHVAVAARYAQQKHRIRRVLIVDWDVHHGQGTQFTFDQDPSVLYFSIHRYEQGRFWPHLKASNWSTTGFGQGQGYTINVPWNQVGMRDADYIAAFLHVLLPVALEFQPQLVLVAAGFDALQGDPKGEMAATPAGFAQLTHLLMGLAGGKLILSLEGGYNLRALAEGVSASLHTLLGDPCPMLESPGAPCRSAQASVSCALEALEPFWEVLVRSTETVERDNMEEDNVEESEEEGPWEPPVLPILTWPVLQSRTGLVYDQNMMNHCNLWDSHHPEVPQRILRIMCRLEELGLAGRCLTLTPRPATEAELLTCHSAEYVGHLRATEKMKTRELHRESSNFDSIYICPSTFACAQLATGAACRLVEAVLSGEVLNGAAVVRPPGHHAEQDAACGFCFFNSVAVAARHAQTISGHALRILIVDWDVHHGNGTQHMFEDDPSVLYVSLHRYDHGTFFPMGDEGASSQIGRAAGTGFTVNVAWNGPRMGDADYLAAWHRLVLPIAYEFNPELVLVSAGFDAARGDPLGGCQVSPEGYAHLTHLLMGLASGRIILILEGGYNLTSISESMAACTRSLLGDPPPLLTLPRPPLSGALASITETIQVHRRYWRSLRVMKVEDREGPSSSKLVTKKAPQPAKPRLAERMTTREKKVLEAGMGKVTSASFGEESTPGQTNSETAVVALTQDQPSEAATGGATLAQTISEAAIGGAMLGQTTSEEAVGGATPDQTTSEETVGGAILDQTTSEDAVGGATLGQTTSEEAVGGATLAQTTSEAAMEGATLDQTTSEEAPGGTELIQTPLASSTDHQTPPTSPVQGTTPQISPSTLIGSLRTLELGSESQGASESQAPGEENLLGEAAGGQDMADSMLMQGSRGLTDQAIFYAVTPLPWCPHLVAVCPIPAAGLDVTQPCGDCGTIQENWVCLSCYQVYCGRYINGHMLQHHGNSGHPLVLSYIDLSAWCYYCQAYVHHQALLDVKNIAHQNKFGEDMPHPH
Protocol: as §2

HDAC 6 [4] = target: T2, HDAC 6; test: HDAC 6 fluorogenic peptide substrate assay without preincubation; type: biochemical; conditions: no preincubation; read-out: HDAC 6 inhibitory activity (IC50) No preincubation
Protocol: as §1

T1 sequence (Q13547 whole entry, species assumed): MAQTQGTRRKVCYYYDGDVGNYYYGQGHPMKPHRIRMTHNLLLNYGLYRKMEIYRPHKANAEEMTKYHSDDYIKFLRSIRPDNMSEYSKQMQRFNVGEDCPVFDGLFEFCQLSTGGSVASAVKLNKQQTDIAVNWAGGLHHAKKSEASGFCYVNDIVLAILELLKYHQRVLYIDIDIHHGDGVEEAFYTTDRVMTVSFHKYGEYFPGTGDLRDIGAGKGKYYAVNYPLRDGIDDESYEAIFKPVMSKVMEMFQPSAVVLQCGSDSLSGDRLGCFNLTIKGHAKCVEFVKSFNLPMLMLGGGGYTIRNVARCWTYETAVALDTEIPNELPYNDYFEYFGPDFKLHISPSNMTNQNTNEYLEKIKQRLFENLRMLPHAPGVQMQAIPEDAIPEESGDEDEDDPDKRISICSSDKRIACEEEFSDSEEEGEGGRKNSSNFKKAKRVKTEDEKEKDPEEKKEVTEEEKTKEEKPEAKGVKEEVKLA

| Structure (SMILES) | IC50 (HDAC 1 [1]) [nM] | IC50 (HDAC 1 [2]) [nM] | IC50 (HDAC 6 [3]) [nM] | melting point [°C] | IC50 (HDAC 6 [4]) [nM] |
| --- | --- | --- | --- | --- | --- |
| Cc1nc2ccccn2c1-c1csc(Nc2cccc(C(=O)NO)c2)n1 [Example 1, N-Hydroxy-3-[4-(2-methyl-imidazo[1,2-a]pyridin-3-yl)-thiazol-2-ylamino] -benzamide] | 1080 | 92.7 | 490 | 170.4 | 318 |
| Cc1nc2ccccn2c1-c1csc(Nc2ccc(C(=O)NO)cc2)n1 [Example 3, N-Hydroxy-4-[4-(2-methyl-imidazo[1,2-a]pyridin-3-yl)-thiazol-2-ylamino]-benzamide] | 80 | 53.5 | 55.8 | 188.3 | 46.7 |
| Cc1nc2ccccn2c1-c1nc(Nc2ccc(C(=O)NO)cc2)sc1C [Example 5, N-Hydroxy-4-[5-methyl-4-(2-methyl-imidazo[1,2-a]pyridin-3-yl)-thiazol-2-ylamino]-benzamide] | – | 53.9 | – | 200.5 | – |
| Cc1nc2ccccn2c1-c1nc(Nc2ccc(C(=O)Nc3ccccc3N)cc2)sc1C [Example 6, N-(2-Amino-phenyl)-4-[5-methyl-4-(2-methyl-imidazo[1,2-a]pyridin-3-yl)-thiazol-2-ylamino]-benzamide] | – | 21.5 | – | 250.1 | – |
| Cc1nc2ccc(Cl)cn2c1-c1csc(Nc2ccc(C(=O)NO)cc2)n1 [Example 7, 4-[4-(6-Chloro-2-methyl-imidazo[1,2-a]pyridin-3-yl)-thiazol-2-ylamino]-N-hydroxy-benzamide] | – | 22 | – | – | – |
| Cc1nc2ccc(C(F)(F)F)cn2c1-c1csc(Nc2ccc(C(=O)NO)cc2)n1 [Example 9, N-Hydroxy-4-[4-(2-methyl-6-trifluoromethyl-imidazo[1,2-a]pyridin-3-yl)-thiazol-2-ylamino]-benzamide] | – | 154 | – | 183.2 | – |
| Cc1nc2ccc(C(F)(F)F)cn2c1-c1csc(Nc2ccc(C(=O)Nc3ccccc3N)cc2)n1 [Example 10, N-(2-Amino-phenyl)-4-[4-(2-methyl-6-trifluoromethyl-imidazo[1,2-a]pyridin-3-yl)-thiazol-2-ylamino]-benzamide] | – | 59 | – | – | – |
| COc1ccn2c(-c3csc(Nc4ccc(C(=O)NO)cc4)n3)c(C)nc2c1 [Example 12, N-Hydroxy-4-[4-(7-methoxy-2-methyl-imidazo[1,2-a]pyridin-3-yl)-thiazol-2-ylamino]-benzamide] | – | 62.6 | – | – | – |
| Cc1nc2ccccn2c1-c1csc(N(CC(F)(F)F)c2ccc(C(=O)Nc3ccccc3N)cc2)n1 [Example 21a, N-(2-Amino-phenyl)-4-[[4-(2-methyl-imidazo[1,2-a]pyridin-3-yl)-thiazol-2-yl]-(2,2,2-trifluoro-ethyl)-amino]-benzamide] | – | 147 | – | – | – |
| Cc1nc2ccccn2c1-c1csc(N(CC(F)(F)F)c2ccc(C(=O)NO)cc2)n1 [Example 21b, N-Hydroxy-4-[[4-(2-methyl-imidazo[1,2-a]pyridin-3-yl)-thiazol-2-yl]-(2,2,2-trifluoro-ethyl)-amino]-benzamide] | – | 5580 | – | – | – |

Other lines, results leading:

| IC50 (HDAC 1 [1]) [nM] | IC50 (HDAC 1 [2]) [nM] | IC50 (HDAC 6 [3]) [nM] | melting point [°C] | IC50 (HDAC 6 [4]) [nM] | Structure (SMILES) |
| --- | --- | --- | --- | --- | --- |
| 3260 | 42000 | > 50000 | 194.9 to 197 | > 50000 | Cc1nc2ccccn2c1-c1csc(Nc2cccc(C(=O)Nc3ccccc3N)c2)n1 [Example 2, N-(2-Amino-phenyl)-3-[4-(2-methyl-imidazo[1,2-a]pyridin-3-yl)-thiazol-2-ylamino]-benzamide] |
| 313 | 80 | > 50000 | 161.1 to 165.4 | > 50000 | Cc1nc2ccccn2c1-c1csc(Nc2ccc(C(=O)Nc3ccccc3N)cc2)n1 [Example 4, N-(2-Amino-phenyl)-4-[4-(2-methyl-imidazo[1,2-a]pyridin-3-yl)-thiazol-2-ylamino]-benzamide] |
| – | 51 | – | – | – | Cc1nc2ccc(Cl)cn2c1-c1csc(Nc2ccc(C(=O)Nc3ccccc3N)cc2)n1 [Example 8, N-(2-Amino-phenyl)-4-[4-(6-chloro-2-methyl-imidazo[1,2-a]pyridin-3-yl)-thiazol-2-ylamino]-benzamide] |
| – | 56.9 | – | 159.7 | – | COc1ccn2c(-c3csc(Nc4ccc(C(=O)Nc5ccccc5N)cc4)n3)c(C)nc2c1 [Example 11, N-(2-Amino-phenyl)-4-[4-(7-methoxy-2-methyl-imidazo[1,2-a]pyridin-3-yl)-thiazol-2-ylamino]-benzamide] |
| 85.5 | 29 | 17 | 209.9 | 18.5 | O=C(NO)c1ccc(Nc2nc(-c3cnc4ccccn34)cs2)cc1 [Example 13, N-Hydroxy-4-(4-imidazo[1,2-a]pyridin-3-yl-thiazol-2-ylamino)-benzamide] |
| 5400 | 114 | – | 184.1 | 183 | O=C(NO)c1cccc(Nc2nc(-c3cnc4ccccn34)cs2)c1 [Example 14, N-Hydroxy-3-(4-imidazo[1,2-a]pyridin-3-yl-thiazol-2-ylamino)-benzamide] |
| – | 37 | > 10000 | 229.4 | – | Nc1ccccc1NC(=O)c1ccc(Nc2nc(-c3cnc4ccccn34)cs2)cc1 [Example 15, N-(2-Amino-phenyl)-4-(4-imidazo[1,2-a]pyridin-3-yl-thiazol-2-ylamino)-benzamide] |
| – | 9130 | – | – | – | Nc1ncccc1NC(=O)c1ccc(Nc2nc(-c3cnc4ccccn34)cs2)cc1 [Example 16, N-(2-Amino-pyridin-3-yl)-4-(4-imidazo[1,2-a]pyridin-3-yl-thiazol-2-ylamino)-benzamide] |
| – | 24.6 | – | 186.5 | – | Cc1sc(Nc2ccc(C(=O)Nc3ccccc3N)cc2)nc1-c1cnc2ccccn12 [Example 17, N-(2-Amino-phenyl)-4-(4-imidazo[1,2-a]pyridin-3-yl-5-methyl-thiazol-2-ylamino)-benzamide] |
| – | 46.7 | – | 262.6 | – | Cc1sc(Nc2ccc(C(=O)NO)cc2)nc1-c1cnc2ccccn12 [Example 18, N-Hydroxy-4-(4-imidazo[1,2-a]pyridin-3-yl-5-methyl-thiazol-2-ylamino)-benzamide] |
| – | 6030 | – | – | – | Cc1sc(Nc2ccc(C(=O)Nc3nn(-c4ccccc4)cc3N)cc2)nc1-c1cnc2ccccn12 [Example 19, N-(4-Amino-1-phenyl-1H-pyrazol-3-yl)-4-(4-imidazo [1,2-a]pyridin-3-yl-5-methyl-thiazol-2-ylamino)-benzamide] |
| – | 48 | – | – | – | Nc1ccccc1NC(=O)c1ccc(Nc2ncc(-c3cnc4ccccn34)s2)cc1 [Example 20, N-(2-Amino-phenyl)-4-(5-imidazo[1,2-a]pyridin-3-yl-thiazol-2-ylamino)-benzamide] |
